In patent US6689773B2, “Uracil substituted phenyl sulfamoyl carboxamides” (BASF Aktiengesellschaft, priority 2000, dated 2004):

How the values were obtained:
Assay type in all cases: in vivo
[1] = test system: ABUTH, Velvetleaf, Abutilon theophrasti, Medic.; test: Postemergence herbicidal evaluation (Example 147); settings: rating scale 0-9, two to three weeks after treatment
In short: (§1)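 Ratings on a 0–9 scale cover stand, vigor, malformation, size and chlorosis versus untreated controls, scored two to three weeks after treatment and averaged across tests. Plants about two weeks old received a spray of about 0.016–0.032 kg/ha active in acetone/water (80/20) with 1.0% SUN-IT II.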

[2] = test system: ALOMY, Blackgrass, Alopecurus myosuroides; test: Postemergence herbicidal evaluation (Example 147); settings: rating scale 0-9, two to three weeks after treatment
In short: as §1

[3] = test system: AMBEL, Ragweed, Common, Ambrosia artemiisifolia, L.; test: Postemergence herbicidal evaluation (Example 147); settings: rating scale 0-9, two to three weeks after treatment
In short: as §1

[4] = test system: CHEAL, Lambsquarters, Chenopodium album, L. Common; test: Postemergence herbicidal evaluation (Example 147); settings: rating scale 0-9, two to three weeks after treatment
In short: as §1

[5] = test system: DIGSA, Crabgrass, (Hairy) L, Digitaria sanguinalis, (L)Scop; test: Postemergence herbicidal evaluation (Example 147); settings: rating scale 0-9, two to three weeks after treatment
In short: as §1

[6] = test system: ECHCG, Barnyardgrass, Echinochloa crusgalli, (L.)Beau; test: Postemergence herbicidal evaluation (Example 147); settings: rating scale 0-9, two to three weeks after treatment
In short: as §1

[7] = test system: GLXMA, Soybean, Glycine max, (L.) Merr.; test: Postemergence herbicidal evaluation (Example 147); settings: rating scale 0-9, two to three weeks after treatment
In short: as §1

[8] = test system: IPOHE, Morningglory, Ivyleaf, Ipomoea hederacea, (L)Jacq.; test: Postemergence herbicidal evaluation (Example 147); settings: rating scale 0-9, two to three weeks after treatment
In short: as §1

[9] = test system: SETVI, Green foxtail, Setaria viridis, (L.)Beau; test: Postemergence herbicidal evaluation (Example 147); settings: rating scale 0-9, two to three weeks after treatment
In short: as §1

[10] = test system: TRZAW, Winter wheat, Tritium Aestivum, L. (Winter); test: Postemergence herbicidal evaluation (Example 147); settings: rating scale 0-9, two to three weeks after treatment
In short: as §1

[11] = test system: XANST, Cocklebur, Xanthium strumariam; test: Postemergence herbicidal evaluation (Example 147); settings: rating scale 0-9, two to three weeks after treatment
In short: as §1

[12] = test system: ZEAMX, Field corn, Zea mays L.; test: Postemergence herbicidal evaluation (Example 147); settings: rating scale 0-9, two to three weeks after treatment
In short: as §1

[13] = test system: ABUTH, Velvetleaf, Abutilon theophrasti, Medic.; test: Preemergence herbicidal evaluation (Example 148); settings: rating scale 0-9, two to four weeks after treatment
In short: (§2)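 Scores reflect visual assessment of plant stand, vigour, malformation, size and chlorosis relative to an untreated control, made two to four weeks after a preemergence spray delivering about 0.125–0.250 kg/ha.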

[14] = test system: ALOMY, Blackgrass, Alopecurus myosuroides; test: Preemergence herbicidal evaluation (Example 148); settings: rating scale 0-9, two to four weeks after treatment
In short: as §2

[15] = test system: AMBEL, Ragweed, Common, Ambrosia artemiisifolia, L.; test: Preemergence herbicidal evaluation (Example 148); settings: rating scale 0-9, two to four weeks after treatment
In short: as §2

[16] = test system: CHEAL, Lambsquarters, Chenopodium album, L. Common; test: Preemergence herbicidal evaluation (Example 148); settings: rating scale 0-9, two to four weeks after treatment
In short: as §2

[17] = test system: DIGSA, Crabgrass, (Hairy) L, Digitaria sanguinalis, (L)Scop; test: Preemergence herbicidal evaluation (Example 148); settings: rating scale 0-9, two to four weeks after treatment
In short: as §2

[18] = test system: ECHCG, Barnyardgrass, Echinochloa crusgalli, (L.)Beau; test: Preemergence herbicidal evaluation (Example 148); settings: rating scale 0-9, two to four weeks after treatment
In short: as §2

[19] = test system: GLXMA, Soybean, Glycine max, (L.) Merr.; test: Preemergence herbicidal evaluation (Example 148); settings: rating scale 0-9, two to four weeks after treatment
In short: as §2

[20] = test system: IPOHE, Morningglory, Ivyleaf, Ipomoea hederacea, (L)Jacq.; test: Preemergence herbicidal evaluation (Example 148); settings: rating scale 0-9, two to four weeks after treatment
In short: as §2

[21] = test system: SETVI, Green foxtail, Setaria viridis, (L.)Beau; test: Preemergence herbicidal evaluation (Example 148); settings: rating scale 0-9, two to four weeks after treatment
In short: as §2

[22] = test system: TRZAW, Winter wheat, Tritium Aestivum, L. (Winter); test: Preemergence herbicidal evaluation (Example 148); settings: rating scale 0-9, two to four weeks after treatment
In short: as §2

[23] = test system: XANST, Cocklebur, Xanthium strumariam; test: Preemergence herbicidal evaluation (Example 148); settings: rating scale 0-9, two to four weeks after treatment
In short: as §2

[24] = test system: ZEAMX, Field corn, Zea mays L.; test: Preemergence herbicidal evaluation (Example 148); settings: rating scale 0-9, two to four weeks after treatment
In short: as §2

Compound: CCC(C)N(C)S(=O)(=O)NC(=O)c1cc(-n2c(=O)cc(C(F)(F)F)n(C)c2=O)c(F)cc1Cl (stereo not drawn) [Example 69]
- Postemergence herbicidal rating ABUTH ([1]; rate 0.016 kg/ha): 9.0
- Postemergence herbicidal rating ABUTH ([1]; rate 0.032 kg/ha): 9.0
- Postemergence herbicidal rating ALMOY ([2]; rate 0.016 kg/ha): 1.0
- Postemergence herbicidal rating ALMOY ([2]; rate 0.032 kg/ha): 2.0
- Postemergence herbicidal rating AMBEL ([3]; rate 0.016 kg/ha): 9.0
- Postemergence herbicidal rating AMBEL ([3]; rate 0.032 kg/ha): 9.0
- Postemergence herbicidal rating CHEAL ([4]; rate 0.016 kg/ha): 8.0
- Postemergence herbicidal rating CHEAL ([4]; rate 0.032 kg/ha): 8.0
- Postemergence herbicidal rating DIGSA ([5]; rate 0.016 kg/ha): 4.0
- Postemergence herbicidal rating DIGSA ([5]; rate 0.032 kg/ha): 6.0
- Postemergence herbicidal rating ECHCG ([6]; rate 0.016 kg/ha): 5.0
- Postemergence herbicidal rating ECHCG ([6]; rate 0.032 kg/ha): 7.0
- Postemergence herbicidal rating GLXMA ([7]; rate 0.016 kg/ha): 8.0
- Postemergence herbicidal rating GLXMA ([7]; rate 0.032 kg/ha): 8.0
- Postemergence herbicidal rating IPOHE ([8]; rate 0.016 kg/ha): 9.0
- Postemergence herbicidal rating IPOHE ([8]; rate 0.032 kg/ha): 9.0
- Postemergence herbicidal rating SETVI ([9]; rate 0.016 kg/ha): 5.0
- Postemergence herbicidal rating SETVI ([9]; rate 0.032 kg/ha): 6.0
- Postemergence herbicidal rating TRZAW ([10]; rate 0.016 kg/ha): 5.0
- Postemergence herbicidal rating TRZAW ([10]; rate 0.032 kg/ha): 6.5
- Postemergence herbicidal rating XANST ([11]; rate 0.016 kg/ha): 9.0
- Postemergence herbicidal rating XANST ([11]; rate 0.032 kg/ha): 9.0
- Postemergence herbicidal rating ZEAMX ([12]; rate 0.016 kg/ha): 7.0
- Postemergence herbicidal rating ZEAMX ([12]; rate 0.032 kg/ha): 7.5
- Preemergence herbicidal rating ABUTH ([13]; rate 0.125 kg/ha): 9.0
- Preemergence herbicidal rating ABUTH ([13]; rate 0.25 kg/ha): 9.0
- Preemergence herbicidal rating ALMOY ([14]; rate 0.125 kg/ha): 0.0
- Preemergence herbicidal rating ALMOY ([14]; rate 0.25 kg/ha): 0.0
- Preemergence herbicidal rating AMBEL ([15]; rate 0.125 kg/ha): 8.0
- Preemergence herbicidal rating AMBEL ([15]; rate 0.25 kg/ha): 9.0
- Preemergence herbicidal rating CHEAL ([16]; rate 0.125 kg/ha): 9.0
- Preemergence herbicidal rating CHEAL ([16]; rate 0.25 kg/ha): 9.0
- Preemergence herbicidal rating DIGSA ([17]; rate 0.125 kg/ha): 3.0
- Preemergence herbicidal rating DIGSA ([17]; rate 0.25 kg/ha): 3.0
- Preemergence herbicidal rating ECHCG ([18]; rate 0.125 kg/ha): 2.0
- Preemergence herbicidal rating ECHCG ([18]; rate 0.25 kg/ha): 3.0
- Preemergence herbicidal rating GLXMA ([19]; rate 0.125 kg/ha): 0.0
- Preemergence herbicidal rating GLXMA ([19]; rate 0.25 kg/ha): 3.0
- Preemergence herbicidal rating IPOHE ([20]; rate 0.125 kg/ha): 9.0
- Preemergence herbicidal rating IPOHE ([20]; rate 0.25 kg/ha): 9.0
- Preemergence herbicidal rating SETVI ([21]; rate 0.125 kg/ha): 0.0
- Preemergence herbicidal rating SETVI ([21]; rate 0.25 kg/ha): 1.0
- Preemergence herbicidal rating TRZAW ([22]; rate 0.125 kg/ha): 0.0
- Preemergence herbicidal rating TRZAW ([22]; rate 0.25 kg/ha): 0.0
- Preemergence herbicidal rating XANST ([23]; rate 0.125 kg/ha): 3.0
- Preemergence herbicidal rating XANST ([23]; rate 0.25 kg/ha): 4.0
- Preemergence herbicidal rating ZEAMX ([24]; rate 0.125 kg/ha): 2.0
- Preemergence herbicidal rating ZEAMX ([24]; rate 0.25 kg/ha): 3.0

Compound: 3-(5-(N,N-Dimethyl)sulfamoylcarboxamido-4-chloro-2-fluorophenyl)-1,2,3,4-dihydro-6-trifluoromethylpyrimidin-2,4-dione [Example 54]
- Postemergence herbicidal rating ABUTH ([1]; rate 0.016 kg/ha): 9.0
- Postemergence herbicidal rating ABUTH ([1]; rate 0.032 kg/ha): 9.0
- Postemergence herbicidal rating ALMOY ([2]; rate 0.016 kg/ha): 2.0
- Postemergence herbicidal rating ALMOY ([2]; rate 0.032 kg/ha): 2.0
- Postemergence herbicidal rating AMBEL ([3]; rate 0.016 kg/ha): 9.0
- Postemergence herbicidal rating AMBEL ([3]; rate 0.032 kg/ha): 9.0
- Postemergence herbicidal rating CHEAL ([4]; rate 0.016 kg/ha): 9.0
- Postemergence herbicidal rating CHEAL ([4]; rate 0.032 kg/ha): 9.0
- Postemergence herbicidal rating DIGSA ([5]; rate 0.016 kg/ha): 5.0
- Postemergence herbicidal rating DIGSA ([5]; rate 0.032 kg/ha): 6.0
- Postemergence herbicidal rating ECHCG ([6]; rate 0.016 kg/ha): 6.0
- Postemergence herbicidal rating ECHCG ([6]; rate 0.032 kg/ha): 8.0
- Postemergence herbicidal rating GLXMA ([7]; rate 0.016 kg/ha): 8.0
- Postemergence herbicidal rating GLXMA ([7]; rate 0.032 kg/ha): 8.5
- Postemergence herbicidal rating IPOHE ([8]; rate 0.016 kg/ha): 9.0
- Postemergence herbicidal rating IPOHE ([8]; rate 0.032 kg/ha): 9.0
- Postemergence herbicidal rating SETVI ([9]; rate 0.016 kg/ha): 7.0
- Postemergence herbicidal rating SETVI ([9]; rate 0.032 kg/ha): 7.0
- Postemergence herbicidal rating TRZAW ([10]; rate 0.016 kg/ha): 5.5
- Postemergence herbicidal rating TRZAW ([10]; rate 0.032 kg/ha): 6.0
- Postemergence herbicidal rating XANST ([11]; rate 0.016 kg/ha): 9.0
- Postemergence herbicidal rating XANST ([11]; rate 0.032 kg/ha): 9.0
- Postemergence herbicidal rating ZEAMX ([12]; rate 0.016 kg/ha): 6.5
- Postemergence herbicidal rating ZEAMX ([12]; rate 0.032 kg/ha): 7.5
- Preemergence herbicidal rating ABUTH ([13]; rate 0.125 kg/ha): 9.0
- Preemergence herbicidal rating ABUTH ([13]; rate 0.25 kg/ha): 9.0
- Preemergence herbicidal rating ALMOY ([14]; rate 0.125 kg/ha): 0.0
- Preemergence herbicidal rating ALMOY ([14]; rate 0.25 kg/ha): 0.0
- Preemergence herbicidal rating AMBEL ([15]; rate 0.125 kg/ha): 7.0
- Preemergence herbicidal rating AMBEL ([15]; rate 0.25 kg/ha): 8.0
- Preemergence herbicidal rating CHEAL ([16]; rate 0.125 kg/ha): 9.0
- Preemergence herbicidal rating CHEAL ([16]; rate 0.25 kg/ha): 9.0
- Preemergence herbicidal rating DIGSA ([17]; rate 0.125 kg/ha): 4.0
- Preemergence herbicidal rating DIGSA ([17]; rate 0.25 kg/ha): 6.0
- Preemergence herbicidal rating ECHCG ([18]; rate 0.125 kg/ha): 3.0
- Preemergence herbicidal rating ECHCG ([18]; rate 0.25 kg/ha): 3.0
- Preemergence herbicidal rating GLXMA ([19]; rate 0.125 kg/ha): 0.0
- Preemergence herbicidal rating GLXMA ([19]; rate 0.25 kg/ha): 0.0
- Preemergence herbicidal rating IPOHE ([20]; rate 0.125 kg/ha): 0.0
- Preemergence herbicidal rating IPOHE ([20]; rate 0.25 kg/ha): 1.0
- Preemergence herbicidal rating SETVI ([21]; rate 0.125 kg/ha): 2.0
- Preemergence herbicidal rating SETVI ([21]; rate 0.25 kg/ha): 3.0
- Preemergence herbicidal rating TRZAW ([22]; rate 0.125 kg/ha): 0.0
- Preemergence herbicidal rating TRZAW ([22]; rate 0.25 kg/ha): 0.0
- Preemergence herbicidal rating XANST ([23]; rate 0.125 kg/ha): 1.0
- Preemergence herbicidal rating XANST ([23]; rate 0.25 kg/ha): 3.0
- Preemergence herbicidal rating ZEAMX ([24]; rate 0.125 kg/ha): 0.0
- Preemergence herbicidal rating ZEAMX ([24]; rate 0.25 kg/ha): 0.0
